Experimental data: patent publication US20060252807A1, “Novel ortho-terphenyl inhibitors of p38 kinase and methods of treating inflammatory disorders” (Kalypsys, Inc., priority 2005, published 2006)

These compounds were tested against T1, active p38 alpha enzyme (Upstate Biotechnology) (Homo sapiens, UniProt Q16539) (assay: p38α biochemical assay (ATP turnover, luminescent detection, Cambrex PKlight)). Conditions: p38α biochemical assay, Table 1 Biological Activity.
T1 construct: purchased Upstate Biotechnology
Procedure, shortened: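 In this kinase reaction, p38α used MapkapK2 as phosphorylation substrate at low ATP (1.4 uM final) over 2 hours at 30C, and activity was followed as ATP turnover by luminescence.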

T1 sequence (Q16539 whole entry): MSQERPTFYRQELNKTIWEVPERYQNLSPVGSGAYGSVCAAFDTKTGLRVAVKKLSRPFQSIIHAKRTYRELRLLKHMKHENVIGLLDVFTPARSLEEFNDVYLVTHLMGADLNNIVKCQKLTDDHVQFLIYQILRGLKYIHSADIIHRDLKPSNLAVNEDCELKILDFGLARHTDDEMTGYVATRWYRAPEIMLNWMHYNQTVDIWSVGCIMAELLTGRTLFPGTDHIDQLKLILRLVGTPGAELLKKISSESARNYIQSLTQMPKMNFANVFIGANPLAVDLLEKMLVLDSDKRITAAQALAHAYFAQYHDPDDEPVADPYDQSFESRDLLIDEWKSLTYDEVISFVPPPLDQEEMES

IC50 [nM] | SMILES
≤ 1000 | CC(C)NC(=O)c1csc(-c2oc(CN3CCN(C(=O)c4cc(Cl)ccc4O)CC3)nc2-c2ccc(F)cc2)n1 [Example 433]
≤ 1000 | CC(C)NC(=O)c1csc(-c2oc(CN3CCN(C(=O)c4ccc5ncccc5c4)CC3)nc2-c2ccc(F)cc2)n1 [Example 434]
≤ 1000 | CC(C)NC(=O)c1csc(-c2oc(CN3CCN(C(=O)c4cnc(O)c(Cl)c4)CC3)nc2-c2ccc(F)cc2)n1 [Example 435]
> 1000 | CC(C)NC(=O)c1csc(-c2oc(CN3CCN(C(=O)c4ccc(F)cc4Cl)CC3)nc2-c2ccc(F)cc2)n1 [Example 436]
> 1000 | CC(C)NC(=O)c1csc(-c2oc(CN3CCN(C(=O)c4c(F)cccc4Cl)CC3)nc2-c2ccc(F)cc2)n1 [Example 437]
> 1000 | CC(C)NC(=O)c1csc(-c2oc(CN3CCN(C(=O)CNC(=O)OC(C)(C)C)CC3)nc2-c2ccc(F)cc2)n1 [Example 438]
> 1000 | Cc1c(C(=O)N2CCN(Cc3nc(-c4ccc(F)cc4)c(-c4nc(C(=O)NC(C)C)cs4)o3)CC2)oc2ccccc12 [Example 439]
≤ 1000 | CC(C)NC(=O)c1csc(-c2oc(CN3CCN(C(=O)CC4Cc5ccccc5C4)CC3)nc2-c2ccc(F)cc2)n1 [Example 440]
≤ 1000 | CC(C)NC(=O)c1csc(-c2oc(CN3CCN(C(=O)C4CCc5ccccc5C4)CC3)nc2-c2ccc(F)cc2)n1 (centres unmarked) [Example 441]
≤ 1000 | COc1ccccc1/C=C/C(=O)N1CCN(Cc2nc(-c3ccc(F)cc3)c(-c3nc(C(=O)NC(C)C)cs3)o2)CC1 [Example 442]
> 1000 | CC(C)NC(=O)c1csc(-c2oc(CN3CCN(C(=O)c4csc5ccccc45)CC3)nc2-c2ccc(F)cc2)n1 [Example 443]
> 1000 | CC(C)NC(=O)c1csc(-c2oc(CN3CCN(C(=O)c4cc5ccccc5s4)CC3)nc2-c2ccc(F)cc2)n1 [Example 444]
> 1000 | CCCCc1ccc(C(=O)N2CCN(Cc3nc(-c4ccc(F)cc4)c(-c4nc(C(=O)NC(C)C)cs4)o3)CC2)cc1 [Example 445]
> 1000 | CC(C)NC(=O)c1csc(-c2oc(CN3CCN(C(=O)c4ccc(C(C)(C)C)cc4)CC3)nc2-c2ccc(F)cc2)n1 [Example 446]
≤ 1000 | CC(C)NC(=O)c1csc(-c2oc(CN3CCN(C(=O)c4ccc(N(C)C=O)cc4)CC3)nc2-c2ccc(F)cc2)n1 [Example 447]
≤ 1000 | CC(=O)Nc1cccc(C(=O)N2CCN(Cc3nc(-c4ccc(F)cc4)c(-c4nc(C(=O)NC(C)C)cs4)o3)CC2)c1 [Example 448]
> 1000 | CC(C)NC(=O)c1csc(-c2oc(CN3CCN(C(=O)COc4ccccc4C=O)CC3)nc2-c2ccc(F)cc2)n1 [Example 449]
> 1000 | CC(=O)Oc1ccc(C(=O)N2CCN(Cc3nc(-c4ccc(F)cc4)c(-c4nc(C(=O)NC(C)C)cs4)o3)CC2)cc1 [Example 450]
> 1000 | COC(=O)c1ccc(C(=O)N2CCN(Cc3nc(-c4ccc(F)cc4)c(-c4nc(C(=O)NC(C)C)cs4)o3)CC2)cc1 [Example 451]
≤ 1000 | CC(=O)Oc1cccc(C(=O)N2CCN(Cc3nc(-c4ccc(F)cc4)c(-c4nc(C(=O)NC(C)C)cs4)o3)CC2)c1 [Example 452]
> 1000 | CC(=O)Oc1ccccc1C(=O)N1CCN(Cc2nc(-c3ccc(F)cc3)c(-c3nc(C(=O)NC(C)C)cs3)o2)CC1 [Example 453]

IC50 [nM] | SMILES
> 1000 | CC(C)NC(=O)c1csc(-c2oc(CN3CCN(C(=O)Cc4ccc5c(c4)OCO5)CC3)nc2-c2ccc(F)cc2)n1 [Example 454]
> 1000 | CCCOc1ccc(C(=O)N2CCN(Cc3nc(-c4ccc(F)cc4)c(-c4nc(C(=O)NC(C)C)cs4)o3)CC2)cc1 [Example 455]
≤ 1000 | CC(C)NC(=O)c1csc(-c2oc(CN3CCN(C(=O)c4ccc(OC(C)C)cc4)CC3)nc2-c2ccc(F)cc2)n1 [Example 456]
≤ 1000 | Cc1cccc([N+](=O)[O-])c1C(=O)N1CCN(Cc2nc(-c3ccc(F)cc3)c(-c3nc(C(=O)NC(C)C)cs3)o2)CC1 [Example 457]
> 1000 | Cc1cccc(C(=O)N2CCN(Cc3nc(-c4ccc(F)cc4)c(-c4nc(C(=O)NC(C)C)cs4)o3)CC2)c1[N+](=O)[O-] [Example 458]
> 1000 | Cc1ccc([N+](=O)[O-])c(C(=O)N2CCN(Cc3nc(-c4ccc(F)cc4)c(-c4nc(C(=O)NC(C)C)cs4)o3)CC2)c1 [Example 459]
> 1000 | Cc1c(C(=O)N2CCN(Cc3nc(-c4ccc(F)cc4)c(-c4nc(C(=O)NC(C)C)cs4)o3)CC2)cccc1[N+](=O)[O-] [Example 460]
> 1000 | COc1ccc(OC)c(C(=O)N2CCN(Cc3nc(-c4ccc(F)cc4)c(-c4nc(C(=O)NC(C)C)cs4)o3)CC2)c1 [Example 461]
≤ 1000 | COc1ccc(C(=O)N2CCN(Cc3nc(-c4ccc(F)cc4)c(-c4nc(C(=O)NC(C)C)cs4)o3)CC2)c(OC)c1 [Example 462]
≤ 1000 | COc1cccc(OC)c1C(=O)N1CCN(Cc2nc(-c3ccc(F)cc3)c(-c3nc(C(=O)NC(C)C)cs3)o2)CC1 [Example 463]
> 1000 | COc1cc(OC)cc(C(=O)N2CCN(Cc3nc(-c4ccc(F)cc4)c(-c4nc(C(=O)NC(C)C)cs4)o3)CC2)c1 [Example 464]
> 1000 | COc1cccc(C(=O)N2CCN(Cc3nc(-c4ccc(F)cc4)c(-c4nc(C(=O)NC(C)C)cs4)o3)CC2)c1OC [Example 465]
> 1000 | Cc1ccc(SCC(=O)N2CCN(Cc3nc(-c4ccc(F)cc4)c(-c4nc(C(=O)NC(C)C)cs4)o3)CC2)cc1 [Example 466]
> 1000 | CC(C)NC(=O)c1csc(-c2oc(CN3CCN(C(=O)/C=C/c4ccc(Cl)cc4)CC3)nc2-c2ccc(F)cc2)n1 [Example 467]
> 1000 | CC(C)NC(=O)c1csc(-c2oc(CN3CCN(C(=O)/C=C/c4ccccc4Cl)CC3)nc2-c2ccc(F)cc2)n1 [Example 468]
> 1000 | CC(C)NC(=O)c1csc(-c2oc(CN3CCN(C(=O)c4ccc([N+](=O)[O-])c(O)c4)CC3)nc2-c2ccc(F)cc2)n1 [Example 469]
> 1000 | CC(C)NC(=O)c1csc(-c2oc(CN3CCN(C(=O)c4cc(O)ccc4[N+](=O)[O-])CC3)nc2-c2ccc(F)cc2)n1 [Example 470]
≤ 1000 | CC(C)NC(=O)c1csc(-c2oc(CN3CCN(C(=O)c4cc([N+](=O)[O-])ccc4O)CC3)nc2-c2ccc(F)cc2)n1 [Example 471]
> 1000 | CC(C)NC(=O)c1csc(-c2oc(CN3CCN(C(=O)c4cc([N+](=O)[O-])ccc4F)CC3)nc2-c2ccc(F)cc2)n1 [Example 472]
> 1000 | CC(C)NC(=O)c1csc(-c2oc(CN3CCN(C(=O)c4cc(F)ccc4[N+](=O)[O-])CC3)nc2-c2ccc(F)cc2)n1 [Example 473]
> 1000 | CC(C)NC(=O)c1csc(-c2oc(CN3CCN(C(=O)c4ccc(F)c([N+](=O)[O-])c4)CC3)nc2-c2ccc(F)cc2)n1 [Example 474]

IC50 [nM] | SMILES
> 1000 | COc1ccc(Cl)cc1C(=O)N1CCN(Cc2nc(-c3ccc(F)cc3)c(-c3nc(C(=O)NC(C)C)cs3)o2)CC1 [Example 475]
> 1000 | COc1cc(Cl)ccc1C(=O)N1CCN(Cc2nc(-c3ccc(F)cc3)c(-c3nc(C(=O)NC(C)C)cs3)o2)CC1 [Example 476]
> 1000 | CC(C)NC(=O)c1csc(-c2oc(CN3CCN(C(=O)Cc4ccc(O)c(Cl)c4)CC3)nc2-c2ccc(F)cc2)n1 [Example 477]
> 1000 | COc1cc(C(=O)N2CCN(Cc3nc(-c4ccc(F)cc4)c(-c4nc(C(=O)NC(C)C)cs4)o3)CC2)cc(Cl)n1 [Example 478]
> 1000 | CC(C)NC(=O)c1csc(-c2oc(CN3CCN(C(=O)c4ccc5cc(O)ccc5c4)CC3)nc2-c2ccc(F)cc2)n1 [Example 479]
> 1000 | CC(C)NC(=O)c1csc(-c2oc(CN3CCN(C(=O)c4c(O)ccc5ccccc45)CC3)nc2-c2ccc(F)cc2)n1 [Example 480]
> 1000 | CC(C)NC(=O)c1csc(-c2oc(CN3CCN(C(=O)c4cc5ccccc5cc4O)CC3)nc2-c2ccc(F)cc2)n1 [Example 481]
> 1000 | CC(C)NC(=O)c1csc(-c2oc(CN3CCN(C(=O)c4ccc5ccccc5c4O)CC3)nc2-c2ccc(F)cc2)n1 [Example 482]
≤ 1000 | CC(C)NC(=O)c1csc(-c2oc(CN3CCN(C(=O)c4ccc5cccc(O)c5n4)CC3)nc2-c2ccc(F)cc2)n1 [Example 483]
> 1000 | CC(C)NC(=O)c1csc(-c2oc(CN3CCN(C(=O)C(C)NC(=O)OC(C)(C)C)CC3)nc2-c2ccc(F)cc2)n1 (centres unmarked) [Example 484]
> 1000 | CC(C)NC(=O)c1csc(-c2oc(CN3CCN(C(=O)C(C)NC(=O)OC(C)(C)C)CC3)nc2-c2ccc(F)cc2)n1 (centres unmarked) [Example 485]
> 1000 | CC(C)NC(=O)c1csc(-c2oc(CN3CCN(C(=O)c4ccccc4C(F)(F)F)CC3)nc2-c2ccc(F)cc2)n1 [Example 486]
> 1000 | CC(C)NC(=O)c1csc(-c2oc(CN3CCN(C(=O)CCc4nc5ccccc5[nH]4)CC3)nc2-c2ccc(F)cc2)n1 [Example 487]
> 1000 | CC(C)NC(=O)c1csc(-c2oc(CN3CCN(C(=O)c4cccc(Cl)c4Cl)CC3)nc2-c2ccc(F)cc2)n1 [Example 488]
> 1000 | CC(C)NC(=O)c1csc(-c2oc(CN3CCN(C(=O)c4ccc(Cl)cc4Cl)CC3)nc2-c2ccc(F)cc2)n1 [Example 489]
> 1000 | CC(C)NC(=O)c1csc(-c2oc(CN3CCN(C(=O)c4cc(Cl)ccc4Cl)CC3)nc2-c2ccc(F)cc2)n1 [Example 490]
> 1000 | CC(C)NC(=O)c1csc(-c2oc(CN3CCN(C(=O)c4cc(F)c(F)c(O)c4F)CC3)nc2-c2ccc(F)cc2)n1 [Example 491]
> 1000 | CC(C)NC(=O)c1csc(-c2oc(CN3CCN(C(=O)/C=C/c4ccc5c(c4)OCO5)CC3)nc2-c2ccc(F)cc2)n1 [Example 492]
> 1000 | Cc1ccc(C(=O)CCC(=O)N2CCN(Cc3nc(-c4ccc(F)cc4)c(-c4nc(C(=O)NC(C)C)cs4)o3)CC2)cc1 [Example 493]
> 1000 | CCCCCc1ccc(C(=O)N2CCN(Cc3nc(-c4ccc(F)cc4)c(-c4nc(C(=O)NC(C)C)cs4)o3)CC2)cc1 [Example 494]
